# From US9492471B2, “Methods of treating a disease or disorder associated with Bruton'S Tyrosine Kinase” (Celgene Avilomics Research, Inc., priority 2013, dated 2016)
# Read-outs that look alike come from different tables or passages of the source.
# Experiments:
# Experiment in all cases: HotSpot kinase profiling
# Assay type in all cases: biochemical
# [1] = molecular target: T1, AKT3 (Homo sapiens, UniProt Q9Y243)
# T1 construct: purchased Reaction Biology Corp
# In short: (§1)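 Radio-isotope P81 filtration format. Substrate + required cofactors in reaction buffer, kinase added, 2 h RT. Stop, wash with 0.1% phosphoric acid, detect. % inhibition vs DMSO; mean of duplicates where repeated.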
# [2] = molecular target: T2, CDK16/cyclin Y (Homo sapiens, UniProt Q00536)
# T2 construct: purchased Reaction Biology Corp
# In short: as §1
# [3] = molecular target: T3, CDK5/p35 (Homo sapiens, UniProt Q00535)
# T3 construct: purchased Reaction Biology Corp
# In short: as §1
# [4] = molecular target: T4, CHK1 (Homo sapiens, UniProt O14757)
# T4 construct: purchased Reaction Biology Corp
# T4 sequence (O14757 1-476): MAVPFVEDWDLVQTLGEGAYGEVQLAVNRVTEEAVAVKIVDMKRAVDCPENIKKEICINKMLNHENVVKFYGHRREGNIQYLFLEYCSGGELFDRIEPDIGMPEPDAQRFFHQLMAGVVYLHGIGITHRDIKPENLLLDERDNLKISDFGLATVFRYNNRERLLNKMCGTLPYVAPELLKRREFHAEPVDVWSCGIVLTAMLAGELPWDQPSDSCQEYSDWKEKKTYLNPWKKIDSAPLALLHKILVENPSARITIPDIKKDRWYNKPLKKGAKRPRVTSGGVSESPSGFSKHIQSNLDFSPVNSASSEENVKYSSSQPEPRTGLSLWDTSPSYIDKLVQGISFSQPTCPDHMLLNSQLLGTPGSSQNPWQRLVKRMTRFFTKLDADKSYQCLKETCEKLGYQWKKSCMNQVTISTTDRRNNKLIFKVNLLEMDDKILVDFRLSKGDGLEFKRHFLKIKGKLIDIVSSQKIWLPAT
# In short: as §1
# [5] = molecular target: T5, EPHA1 (Homo sapiens, UniProt P21709)
# T5 construct: purchased Reaction Biology Corp
# T5 sequence (P21709 26-976): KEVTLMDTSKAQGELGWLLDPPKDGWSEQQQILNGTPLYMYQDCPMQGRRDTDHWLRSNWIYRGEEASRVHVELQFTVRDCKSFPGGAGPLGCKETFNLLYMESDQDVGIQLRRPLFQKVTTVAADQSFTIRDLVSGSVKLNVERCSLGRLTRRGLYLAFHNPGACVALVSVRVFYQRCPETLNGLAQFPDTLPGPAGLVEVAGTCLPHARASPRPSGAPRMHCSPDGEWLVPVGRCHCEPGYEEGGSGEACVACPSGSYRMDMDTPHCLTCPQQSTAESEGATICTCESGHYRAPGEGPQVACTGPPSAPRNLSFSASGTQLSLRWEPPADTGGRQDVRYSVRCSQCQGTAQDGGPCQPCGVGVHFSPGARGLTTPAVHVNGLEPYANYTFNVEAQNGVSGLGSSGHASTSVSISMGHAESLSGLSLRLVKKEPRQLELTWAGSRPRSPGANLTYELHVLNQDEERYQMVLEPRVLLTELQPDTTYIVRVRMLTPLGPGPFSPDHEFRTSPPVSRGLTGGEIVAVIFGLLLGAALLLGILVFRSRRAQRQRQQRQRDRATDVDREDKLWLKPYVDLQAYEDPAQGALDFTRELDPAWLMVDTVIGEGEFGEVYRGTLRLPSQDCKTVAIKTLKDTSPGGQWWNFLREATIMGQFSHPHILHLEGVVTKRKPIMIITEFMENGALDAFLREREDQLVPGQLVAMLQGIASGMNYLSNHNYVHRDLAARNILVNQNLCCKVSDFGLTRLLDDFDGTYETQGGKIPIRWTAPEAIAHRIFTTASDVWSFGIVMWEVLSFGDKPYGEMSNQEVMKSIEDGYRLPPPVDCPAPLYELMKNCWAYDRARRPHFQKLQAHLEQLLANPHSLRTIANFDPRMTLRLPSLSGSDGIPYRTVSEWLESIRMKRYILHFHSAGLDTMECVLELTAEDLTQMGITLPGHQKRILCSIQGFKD
# In short: as §1
# [6] = molecular target: T6, MLK2/MAP3K10 (Homo sapiens, UniProt Q02779)
# T6 construct: purchased Reaction Biology Corp
# In short: as §1
# [7] = read-out: % Enzyme Activity (relative to DMSO controls) Run 1
# [8] = read-out: % Enzyme Activity (relative to DMSO controls) Run 2
# T2 sequence (Q00536 whole entry): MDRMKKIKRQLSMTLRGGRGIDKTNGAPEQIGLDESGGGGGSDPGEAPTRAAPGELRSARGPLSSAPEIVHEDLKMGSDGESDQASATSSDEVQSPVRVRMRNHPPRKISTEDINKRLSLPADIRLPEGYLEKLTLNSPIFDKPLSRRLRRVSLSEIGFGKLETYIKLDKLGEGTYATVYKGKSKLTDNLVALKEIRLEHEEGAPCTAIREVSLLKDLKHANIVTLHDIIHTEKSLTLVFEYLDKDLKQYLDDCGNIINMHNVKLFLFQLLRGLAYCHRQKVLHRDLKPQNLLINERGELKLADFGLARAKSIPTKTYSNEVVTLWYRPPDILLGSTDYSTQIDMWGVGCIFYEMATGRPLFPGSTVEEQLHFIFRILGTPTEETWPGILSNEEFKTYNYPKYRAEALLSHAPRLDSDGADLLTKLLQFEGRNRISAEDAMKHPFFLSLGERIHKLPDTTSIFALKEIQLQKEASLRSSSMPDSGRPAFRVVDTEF
# T2 sequence (Q8ND76 whole entry partner): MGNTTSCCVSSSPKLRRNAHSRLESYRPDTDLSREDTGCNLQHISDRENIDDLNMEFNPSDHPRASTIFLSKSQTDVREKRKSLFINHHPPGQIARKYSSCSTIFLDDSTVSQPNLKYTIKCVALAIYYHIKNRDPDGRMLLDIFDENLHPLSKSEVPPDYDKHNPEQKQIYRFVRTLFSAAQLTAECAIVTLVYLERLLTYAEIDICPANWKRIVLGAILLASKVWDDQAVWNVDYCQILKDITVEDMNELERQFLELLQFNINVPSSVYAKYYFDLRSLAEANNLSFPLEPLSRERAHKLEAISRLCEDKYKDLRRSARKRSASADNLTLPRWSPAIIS
# T6 sequence (Q02779 whole entry): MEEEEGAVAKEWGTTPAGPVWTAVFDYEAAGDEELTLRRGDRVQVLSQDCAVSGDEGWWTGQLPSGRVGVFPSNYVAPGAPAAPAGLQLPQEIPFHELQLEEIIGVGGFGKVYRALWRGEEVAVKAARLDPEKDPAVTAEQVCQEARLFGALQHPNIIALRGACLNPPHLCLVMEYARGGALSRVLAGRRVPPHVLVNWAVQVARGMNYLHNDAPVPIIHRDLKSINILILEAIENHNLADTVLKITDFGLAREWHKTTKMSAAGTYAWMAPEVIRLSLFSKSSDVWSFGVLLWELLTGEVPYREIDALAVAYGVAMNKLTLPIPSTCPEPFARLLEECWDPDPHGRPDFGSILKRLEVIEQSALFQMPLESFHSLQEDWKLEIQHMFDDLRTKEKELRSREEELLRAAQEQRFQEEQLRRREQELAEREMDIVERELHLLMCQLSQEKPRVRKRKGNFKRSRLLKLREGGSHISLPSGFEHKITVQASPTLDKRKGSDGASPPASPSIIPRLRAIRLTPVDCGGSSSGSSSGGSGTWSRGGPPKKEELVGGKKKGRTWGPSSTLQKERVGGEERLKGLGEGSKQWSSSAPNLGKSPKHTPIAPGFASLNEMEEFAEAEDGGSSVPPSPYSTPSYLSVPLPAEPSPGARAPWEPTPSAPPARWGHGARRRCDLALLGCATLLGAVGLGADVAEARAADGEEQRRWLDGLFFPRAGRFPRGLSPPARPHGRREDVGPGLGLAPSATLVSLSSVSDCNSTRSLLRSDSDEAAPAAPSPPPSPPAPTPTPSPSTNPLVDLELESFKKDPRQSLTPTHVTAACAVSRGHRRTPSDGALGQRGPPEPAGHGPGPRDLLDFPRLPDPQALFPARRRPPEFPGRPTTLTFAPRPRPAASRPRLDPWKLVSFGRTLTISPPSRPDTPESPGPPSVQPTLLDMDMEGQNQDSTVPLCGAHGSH
# T3 sequence (Q00535 whole entry): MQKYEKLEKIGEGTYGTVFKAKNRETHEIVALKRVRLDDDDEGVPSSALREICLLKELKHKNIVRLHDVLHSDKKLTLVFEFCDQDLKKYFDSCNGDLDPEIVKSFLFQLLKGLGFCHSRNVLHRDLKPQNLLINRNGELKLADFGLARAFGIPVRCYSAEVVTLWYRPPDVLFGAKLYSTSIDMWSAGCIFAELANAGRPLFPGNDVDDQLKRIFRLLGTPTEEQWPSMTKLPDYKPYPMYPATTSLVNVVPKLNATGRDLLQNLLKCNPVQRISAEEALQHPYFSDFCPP
# T3 sequence (Q15078 2-307 partner limits assumed): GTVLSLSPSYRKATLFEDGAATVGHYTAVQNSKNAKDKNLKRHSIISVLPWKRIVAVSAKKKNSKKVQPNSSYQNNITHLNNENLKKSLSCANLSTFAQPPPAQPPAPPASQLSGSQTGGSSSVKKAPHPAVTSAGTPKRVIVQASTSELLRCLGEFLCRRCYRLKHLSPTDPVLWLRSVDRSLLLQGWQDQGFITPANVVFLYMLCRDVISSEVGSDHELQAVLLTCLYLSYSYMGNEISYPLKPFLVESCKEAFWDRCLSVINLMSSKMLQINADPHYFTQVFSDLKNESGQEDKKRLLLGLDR
# T1 sequence (Q9Y243 whole entry): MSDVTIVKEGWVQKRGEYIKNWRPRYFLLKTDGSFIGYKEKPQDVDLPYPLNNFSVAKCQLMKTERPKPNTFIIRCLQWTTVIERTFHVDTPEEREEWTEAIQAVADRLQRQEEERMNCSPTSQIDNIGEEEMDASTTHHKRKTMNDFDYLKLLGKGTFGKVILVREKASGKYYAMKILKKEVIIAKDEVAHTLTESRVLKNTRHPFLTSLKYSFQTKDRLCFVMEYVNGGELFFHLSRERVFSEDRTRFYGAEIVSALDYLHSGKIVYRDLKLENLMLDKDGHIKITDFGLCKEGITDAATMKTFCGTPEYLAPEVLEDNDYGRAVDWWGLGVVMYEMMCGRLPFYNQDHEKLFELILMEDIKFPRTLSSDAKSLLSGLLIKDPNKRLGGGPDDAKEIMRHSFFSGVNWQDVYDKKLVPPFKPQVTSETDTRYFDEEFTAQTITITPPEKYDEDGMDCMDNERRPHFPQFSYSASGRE
compound,measurement,setting,value
C=CC(=O)Nc1cccc(Nc2nc(Nc3ccc(OCCOC)c(F)c3)ncc2F)c1 [Compound 2],inhibition at 3 µM,[1],-6.85%
same,remaining activity at 3 µM,[1]; [7],111%
same,remaining activity at 3 µM,[1]; [8],103%
same,inhibition at 3 µM,[2],-3.73%
same,remaining activity at 3 µM,[2]; [7],104%
same,remaining activity at 3 µM,[2]; [8],103%
same,inhibition at 3 µM,[3],4.49%
same,remaining activity at 3 µM,[3]; [7],95%
same,remaining activity at 3 µM,[3]; [8],96.1%
same,inhibition at 3 µM,[4],6.15%
same,remaining activity at 3 µM,[4]; [7],93.1%
same,remaining activity at 3 µM,[4]; [8],94.6%
same,inhibition at 3 µM,[5],-0.24%
same,remaining activity at 3 µM,[5]; [7],99.5%
same,remaining activity at 3 µM,[5]; [8],101%
same,inhibition at 3 µM,[6],54.6%
same,remaining activity at 3 µM,[6]; [7],45.4%
same,remaining activity at 3 µM,[6]; [8],45.3%
